Holding throughout (assay type): cell-based, human
Test [1] concerns Glio3. Nature of the test: MTS cell viability assay, GSC line Glio3. Conditions: 72 h, MTS, ±SEM, read-out: Glio3 IC50. The source says:
(§1) The generation and characterization of our GSC lines (Glio3, Glio9, Glio38) have been previously described. In brief, following patient consent, the resected tumors were mechanically and enzymatically dissociated, and red blood cells were removed using Red Cell Lysis buffer (SigmaAldrich, St. Louis, MO, USA). Cells were filtered and plated in a 3:1 ratio of Dulbecco’s Modified Eagle’s medium (DMEM): F12 (Gibco, Carlsbad, CA, USA) media supplemented with 1% penicillin and streptomcycin (penn/strep), 20 ng/mL each of human epidermal growth factor and human fibroblast growth factor, and 2% Gem21 NeuroPlex Serum-Free Supplement (Gemini Bioscience, Sacramento, CA, USA); a formulation consistent for the generation of GBM stem cell lines. Both Glio3 and Glio38 were derived from tumors prior to drug or radiation therapy and grow as neurospheres, whereas Glio9 was derived from a recurrent tumor, following chemo and radiotherapy, and grows adherent. The GBM cell line U87 MG (U87), purchased from ATCC (Manassas, VA, USA) and the pediatric GBM cell line SJ-GBM2 was obtained from Children’s Oncology Group. SJ-GBM2 cell line was derived from a child with glioblastoma post therapy and is used as part of a National Cancer Institute pediatric pre-clinical testing program. Both lines were maintained in RPMI media supplemented with 10% FBS and 1% penn/strep. Mesenchymal stem cells (MSCs) originally derived from human bone marrow aspirates were obtained from Thermo Fisher Scientific and maintained in MEM alpha supplemented with 20% FBS and 1% penn/strep. Prior to drug treatment, MSCs were moved to media with 10% FBS. Upon receipt U87, SJ-GBM2 and MSCs were immediately expanded with several aliquots frozen down for future use. These cell lines are not listed on the most recent NCBI database for misidentification and contamination of human cell lines. All cell lines were routinely tested for mycoplasma using LookOut mycoplasma PCR detection kit (Sigma-Aldrich, St. Louis, MO, USA) according to the manufacturer’s instructions and were maintained at 37 °C in a humidified 5% CO2 incubator.
(§2) The chalcones were dissolved in dimethyl sulfoxide (DMSO) at a concentration of 10 mM, vortexed and subsequently diluted to obtain 1 mM and 0.1 mM stock concentrations. C-dot-trans-chalcones were resuspended in supplement-free media (3:1 ratio DMEM/F12 for GSC experiments or RPMI for non-stem cell line experiments). Cell viability in response to drug treatment was determined using CellTiter 96 AQueous One Solution Cell Proliferation Assay, a colorimetric MTS assay kit (Promega, Madison, WI, USA). The GSCs were seeded into 96-well plates using modified neurosphere media containing 5% FBS at a density of 10,000 cells per well. MSCs and U87 cells were plated at 5000 cells/well while SJ-GBM2 cells were plated at 10,000 cells/well. The next day cells were treated with increasing concentrations of chalcones or C-dot-chalcone conjugate. Next, 72 h later, media was aspirated and 100 μL of a 1:5 solution of MTS to cell culture media was added to each well and incubated for 1–4 h. Optical density was measured at 490 nm using BioTek Synergy HT plate reader. Viability of drug treated cells is expressed as the percent viable cells relative to non-treated cells (100% viability). Experiments were done in triplicate.
Background: Tetrazolium assays rely on reduction of a dye to a coloured formazan, in cell work by metabolically active cells.

The next test relates to Glio9. Nature of the test: MTS cell viability assay, GSC line Glio9. As to conditions: 72 h, MTS, ±SEM, read-out: Glio9 IC50.
Text: as §1, §2

Test [2] relates to Glio38. Nature of the test: MTS cell viability assay, GSC line Glio38. As to conditions: 72 h, MTS, ±SEM, read-out: Glio38 IC50.
Text: as §1, §2

Test [3] relates to mesenchymal stem cells (MSC). Nature of the test: MTS cell viability assay, mesenchymal stem cells. Conditions: 72 h, estimated, >>10 indicates no cell death observed at any of the concentrations tested.
Text: as §1, §2

For test [4], the system named is GSC lines Glio3, Glio9 and Glio38. Briefly: MTS cell viability assay, all three GSC lines together. As to conditions: 72 h.
Text: as §1, §2

For a further test, the system named is U87. Nature of the test: MTS cell viability assay, U87. Conditions: 72 h. The source says: The generation and characterization of our GSC lines (Glio3, Glio9, Glio38) have been previously described. In brief, following patient consent, the resected tumors were mechanically and enzymatically dissociated, and red blood cells were removed using Red Cell Lysis buffer (SigmaAldrich, St. Louis, MO, USA). Cells were filtered and plated in a 3:1 ratio of Dulbecco’s Modified Eagle’s medium (DMEM): F12 (Gibco, Carlsbad, CA, USA) media supplemented with 1% penicillin and streptomcycin (penn/strep), 20 ng/mL each of human epidermal growth factor and human fibroblast growth factor, and 2% Gem21 NeuroPlex Serum-Free Supplement (Gemini Bioscience, Sacramento, CA, USA); a formulation consistent for the generation of GBM stem cell lines. […]
The chalcones were dissolved in dimethyl sulfoxide (DMSO) at a concentration of 10 mM, vortexed and subsequently diluted to obtain 1 mM and 0.1 mM stock concentrations. […] Cell viability in response to drug treatment was determined using CellTiter 96 AQueous One Solution Cell Proliferation Assay, a colorimetric MTS assay kit (Promega, Madison, WI, USA). […] Optical density was measured at 490 nm using BioTek Synergy HT plate reader. Viability of drug treated cells is expressed as the percent viable cells relative to non-treated cells (100% viability). […]

Test [5] has as its system Glio3. Briefly: Sphere forming assay, Glio3. Conditions: 100 nM alone, vs non-treated controls. As for the experimental part: (§3) The effect of chalcones’ clonogenic growth potential was determined using sphere-forming assays. Glio3 and Glio38 neurosphere cell lines were dissociated using Accutase (Gemini Bioscience, Sacramento, CA, USA), filtered using 40-micron filter and single cells were seeded at approximately 50 cells per well in a 96-well plate. Cells were treated with 0.1, 0.25 or 0.5 μM of chalcone or 0.01, 0.05 or 0.1 μM of C-dot chalcone conjugate on day 0 and spheres were manually counted under microscopy on day 14. All experiments were done in triplicate. Representative images were obtained using EVOS XL Core light microscope (Thermo Fisher Scientific, Waltham, MA, USA).

For test [6], the system named is Glio38. Nature of the test: Sphere forming assay, Glio38. Conditions: 100 nM alone, vs non-treated controls. As for the experimental part:
as §3

Read-outs that look alike come from different tables or passages of the source.

Broadly, the IC50 is the concentration at which inhibition is half-maximal. 3,5-dimethoxy chalcone [Chalcone 3f]: the half-inhibitory concentration (IC50) in the test on Glio3 [1] was 7.8 ± 0.9 µM; in the test on Glio9, 9.7 ± 2 µM; in the test on Glio38 [2], 6.5 ± 0.9 µM; in test [3] it was 74.8 µM; in test [4] (average of Glio3, Glio9, Glio38, read-out: average IC50 across the 3 GSC lines), 8.2 ± 0.8 µM; with U87, 8.5 ± 0.04 µM.

Regarding “transferrin: transferrin alone, targeting ligand used in the conjugates”, the neurosphere formation result in the test on Glio3 [5] and with Glio38 [6] was “neither c-dots or transferrin alone significantly reduced neurosphere formation” in each case.

Take `Nc1ccc(C(=O)/C=C/c2cccc(F)c2)cc1` [Chalcone 3u]: the concentration for half-maximal inhibition (IC50) was 9.9 ± 0.3 µM in the test with Glio3 [1] (Homo sapiens); 7.2 ± 0.6 µM in the test on Glio9 (Homo sapiens); 8.8 ± 1.4 µM in the test with Glio38 [2] (Homo sapiens); 15.6 µM in test [3] (Homo sapiens, Mesenchymal stem cells); 8.6 µM in test [4] (Homo sapiens, average of Glio3, Glio9, Glio38, read-out: average IC50 across the 3 GSC lines); less than 10 µM in test [4] (Homo sapiens, in all three GSC lines, read-out: IC50 in all GSC lines (bound stated in text)).

The values above are taken from publication PMC9316063, “Chalcones as Anti-Glioblastoma Stem Cell Agent Alone or as Nanoparticle Formulation Using Carbon Dots as Nanocarrier” (Pharmaceutics, 2022).
